From ChEMBL document CHEMBL4177704, “Synthesis and biological evaluation of water-soluble derivatives of chiral gossypol as HIV fusion inhibitors targeting gp41” (Bioorg Med Chem Lett, 2018)
pIC50: −log10 of the molar value. “And” between values parts separate entries of the source, which are not always exact repeats. Identical values can stand only once. The source made the active and inactive calls. The rule behind the calls is not given here.

Legend:
[1] = system: Human immunodeficiency virus 1; assay: Antiviral activity against HIV-1 3B infected in human TZM-bl cells treated for 2 hrs followed by compound washout measured after 2 days by luciferase reporter assay; type: functional, organism-based
[2] = Selectivity index, ratio of CC50 for human TZM-bl cells to IC50 for HIV-1 3B infected in human TZM-bl cells; type: toxicity, cell-based
[3] = (§1) Cytotoxicity against human TZM-bl cells after 72 hrs by MTT assay; type: cell-based; details: TZM-bl cells
[4] = system: TZM; assay: as §1; type: cell-based; details: tzm, 72 h
[5] = system: Human immunodeficiency virus 1; assay: Antiviral activity against X4R5 tropic HIV-1 93TH051 expressing Env subtype E infected in human PBMC assessed as reduction in p24 expression levels after 4 days by ELISA; type: functional, organism-based; details: Human immunodeficiency virus 1, 93TH051, PBMC, 96 h
[6] = molecular target: Envelope glycoprotein gp160 (Human immunodeficiency virus 1, UniProt Q6QLK5); assay: Inhibition of HIV gp41 6-helix bundle formation preincubated with C34 and N36 for 30 mins
[7] = Spermicidal activity against mouse sperm assessed as motility of sperm at 100 uM after 1 hr by hemocytometric analysis; type: ADME
[8] = system: Human immunodeficiency virus 1; assay: Antiviral activity against HIV-1 3B infected in human TZM-bl cells at 10 uM treated simultaneously with viral infection for 2 hrs followed by compound washout measured after 2 days by luciferase reporter assay; type: functional, organism-based
[9] = system: Human immunodeficiency virus 1; assay: Antiviral activity against HIV-1 3B infected in human TZM-bl cells at 10 uM treated 2 to 6 hrs post infection for 2 hrs followed by compound washout measured after 2 days by luciferase reporter assay; type: functional, organism-based
[10] = Human immunodeficiency virus 1, 3B, TZM-bl

Chain of Envelope glycoprotein gp160 (Q6QLK5 whole entry): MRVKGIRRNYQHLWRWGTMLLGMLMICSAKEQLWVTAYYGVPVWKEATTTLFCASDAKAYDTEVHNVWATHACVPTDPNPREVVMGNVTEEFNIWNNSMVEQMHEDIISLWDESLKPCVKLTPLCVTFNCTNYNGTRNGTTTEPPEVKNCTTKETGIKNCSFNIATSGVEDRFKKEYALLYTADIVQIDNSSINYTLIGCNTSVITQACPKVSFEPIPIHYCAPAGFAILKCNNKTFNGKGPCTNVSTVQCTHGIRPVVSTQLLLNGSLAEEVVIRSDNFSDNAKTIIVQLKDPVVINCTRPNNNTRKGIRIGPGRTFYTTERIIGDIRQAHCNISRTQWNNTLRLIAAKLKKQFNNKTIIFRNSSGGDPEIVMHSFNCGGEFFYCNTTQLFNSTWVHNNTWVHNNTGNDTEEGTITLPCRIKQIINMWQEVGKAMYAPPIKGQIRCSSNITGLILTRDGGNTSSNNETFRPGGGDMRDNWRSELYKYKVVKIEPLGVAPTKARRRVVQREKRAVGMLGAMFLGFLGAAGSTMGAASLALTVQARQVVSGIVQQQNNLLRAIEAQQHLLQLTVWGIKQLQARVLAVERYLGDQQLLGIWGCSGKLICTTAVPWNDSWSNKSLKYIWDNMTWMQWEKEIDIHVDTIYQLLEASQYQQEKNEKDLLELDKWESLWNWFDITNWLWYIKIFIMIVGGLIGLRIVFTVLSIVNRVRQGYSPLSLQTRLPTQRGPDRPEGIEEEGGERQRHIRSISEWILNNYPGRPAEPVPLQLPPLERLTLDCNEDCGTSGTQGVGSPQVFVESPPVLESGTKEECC

pIC50 [1]	Compound	Ratio CC50/IC50 [2]	CC50 at 72 h [3] [µM]	also measured
5.19	Cc1cc2c(c(O)c1-c1c(C)cc3c(c1O)/C(=C/NC(C)C(=O)NC(C)C(=O)NC(C)C(=O)[O-])C(=O)C(O)=C3C(C)C)/C(=C/NC(C)C(=O)NC(C)C(=O)NC(C)C(=O)[O-])C(=O)C(O)=C2C(C)C.[Na+].[Na+] (single isomer, unassigned; (+))	9.19	58.7	–
5.37	Cc1cc2c(c(O)c1-c1c(C)cc3c(c1O)/C(=C/NC(C)C(=O)NCC(=O)[O-])C(=O)C(O)=C3C(C)C)/C(=C/NC(C)C(=O)NCC(=O)[O-])C(=O)C(O)=C2C(C)C.[Na+].[Na+] (single isomer, unassigned; (+))	14.28	61.1	–
5.84	Cc1cc2c(c(O)c1-c1c(C)cc3c(c1O)/C(=C/NC(C)C(=O)NC(C)C(=O)[O-])C(=O)C(O)=C3C(C)C)/C(=C/NC(C)C(=O)NC(C)C(=O)[O-])C(=O)C(O)=C2C(C)C.[Na+].[Na+] (single isomer, unassigned; (-))	24.99	–	CC50 [4]: 35.7 µM; pIC50 [5]: 5.76; pIC50 [6]: 5.10; Activity [7]: Non-Toxic
5.93	Cc1cc2c(c(O)c1-c1c(C)cc3c(c1O)/C(=C/NC(C)S(=O)(=O)[O-])C(=O)C(O)=C3C(C)C)/C(=C/NC(C)S(=O)(=O)[O-])C(=O)C(O)=C2C(C)C.[Na+].[Na+] (single isomer, unassigned; (-))	–	–	selectivity ratio ([2]; TZM-bl cells, read-out: Ratio CC50/IC50): 32.3; CC50 [4]: 37.8 µM; pIC50 [5]: 5.81; pIC50 [6]: 5.13; Activity [7]: Non-Toxic
5.24	Cc1cc2c(c(O)c1-c1c(C)cc3c(c1O)/C(=C/NC(C)C(=O)NC(C)C(=O)[O-])C(=O)C(O)=C3C(C)C)/C(=C/NC(C)C(=O)NC(C)C(=O)[O-])C(=O)C(O)=C2C(C)C.[Na+].[Na+] (stereo in doubt; (+)-3b)	10.22	59.5	–
5.27	Cc1cc2c(c(O)c1-c1c(C)cc3c(c1O)/C(=C/NC(CC(=O)[O-])C(=O)NC(C)C(=O)[O-])C(=O)C(O)=C3C(C)C)/C(=C/NC(CC(=O)[O-])C(=O)NC(C)C(=O)[O-])C(=O)C(O)=C2C(C)C.[Na+].[Na+].[Na+].[Na+] (stereo in doubt; (+)-4b)	9.56	51.2	–
5.38	Cc1cc2c(c(O)c1-c1c(C)cc3c(c1O)/C(=C/N[C@@H](C)C(=O)[O-])C(=O)C(O)=C3C(C)C)/C(=C/N[C@@H](C)C(=O)[O-])C(=O)C(O)=C2C(C)C.[Na+].[Na+] (stereo in doubt; (+)-8b)	17.59	72.6	–
5.23	Cc1cc2c(c(O)c1-c1c(C)cc3c(c1O)/C(=C/N[C@H](C(=O)[O-])C(C)C)C(=O)C(O)=C3C(C)C)/C(=C/N[C@H](C(=O)[O-])C(C)C)C(=O)C(O)=C2C(C)C.[Na+].[Na+] (stereo in doubt; (+)-9b)	10.78	63.8	–
5.15	Cc1cc2c(c(O)c1-c1c(C)cc3c(c1O)/C(=C/N[C@@H](CC(C)C)C(=O)[O-])C(=O)C(O)=C3C(C)C)/C(=C/N[C@@H](CC(C)C)C(=O)[O-])C(=O)C(O)=C2C(C)C.[Na+].[Na+] (stereo in doubt; (+)-10b)	8.4	60.1	–
5.37	CC[C@H](C)[C@H](N/C=C1\C(=O)C(O)=C(C(C)C)c2cc(C)c(-c3c(C)cc4c(c3O)/C(=C/N[C@H](C(=O)[O-])[C@@H](C)CC)C(=O)C(O)=C4C(C)C)c(O)c21)C(=O)[O-].[Na+].[Na+] (stereo in doubt; (+)-11b)	17.5	73.9	–

The next lines start with the compound.

Compound	pIC50 [1]	Ratio CC50/IC50 [2]	CC50 at 72 h [3] [µM]	also measured
Cc1cc2c(c(O)c1-c1c(C)cc3c(c1O)/C(=C/NC(C)S(=O)(=O)[O-])C(=O)C(O)=C3C(C)C)/C(=C/NC(C)S(=O)(=O)[O-])C(=O)C(O)=C2C(C)C.[Na+].[Na+] (single isomer, unassigned; (+))	–	27.81	54.8	pIC50 [1, 10]: 5.71
Cc1cc2c(c(O)c1-c1c(C)cc3c(c1O)/C(=C/NC(C)C(=O)NC(C)C(=O)O)C(=O)C(O)=C3C(C)C)/C(=C/NC(C)C(=O)NC(C)C(=O)O)C(=O)C(O)=C2C(C)C (single isomer, unassigned; (-))	–	–	–	Activity [8]: Active; Activity [9]: inactive
Cc1cc2c(c(O)c1-c1c(C)cc3c(c1O)/C(=C/NC(C)S(=O)(=O)O)C(=O)C(O)=C3C(C)C)/C(=C/NC(C)S(=O)(=O)O)C(=O)C(O)=C2C(C)C (single isomer, unassigned; (-))	–	–	–	Activity [8]: Active; Activity [9]: inactive
Cc1cc2c(c(O)c1-c1c(C)cc3c(c1O)/C(=C/N[C@@H]1[C@@H](O)[C@H](O)[C@@H](CO)O[C@H]1O)C(=O)C(O)=C3C(C)C)/C(=C/N[C@@H]1[C@@H](O)[C@H](O)[C@@H](CO)O[C@H]1O)C(=O)C(O)=C2C(C)C (stereo in doubt; (+)-1b)	5.12	4.3	32.9	–
Cc1cc2c(c(O)c1-c1c(C)cc3c(c1O)/C(=C/NC(C)C(=O)NC(Cc1ccccc1)C(=O)[O-])C(=O)C(O)=C3C(C)C)/C(=C/NC(C)C(=O)NC(Cc1ccccc1)C(=O)[O-])C(=O)C(O)=C2C(C)C.[Na+].[Na+] (stereo in doubt; (+)-5b)	5.20	7.97	50.3	–
Cc1cc2c(c(O)c1-c1c(C)cc3c(c1O)/C(=C/NCC(=O)NCC(=O)NCC(=O)[O-])C(=O)C(O)=C3C(C)C)/C(=C/NCC(=O)NCC(=O)NCC(=O)[O-])C(=O)C(O)=C2C(C)C.[Na+].[Na+] (stereo in doubt; (+)-6b)	5.18	9.42	62.4	–
Cc1cc2c(c(O)c1-c1c(C)cc3c(c1O)/C(=C/N[C@@H](Cc1c[nH]c4ccccc14)C(=O)[O-])C(=O)C(O)=C3C(C)C)/C(=C/N[C@@H](Cc1c[nH]c3ccccc13)C(=O)[O-])C(=O)C(O)=C2C(C)C.[Na+].[Na+] (stereo in doubt; (+)-12b)	5.04	6.29	57	–
Cc1cc2c(c(O)c1-c1c(C)cc3c(c1O)/C(=C/N[C@@H](Cc1ccccc1)C(=O)[O-])C(=O)C(O)=C3C(C)C)/C(=C/N[C@@H](Cc1ccccc1)C(=O)[O-])C(=O)C(O)=C2C(C)C.[Na+].[Na+] (stereo in doubt; (+)-13b)	–	6.55	53.8	pIC50 [1, 10]: 5.09
Cc1cc2c(c(O)c1-c1c(C)cc3c(c1O)/C(=C/N[C@@H]1[C@@H](O)[C@H](O)[C@@H](CO)O[C@H]1O)C(=O)C(O)=C3C(C)C)/C(=C/N[C@@H]1[C@@H](O)[C@H](O)[C@@H](CO)O[C@H]1O)C(=O)C(O)=C2C(C)C (stereo in doubt; (-)-1a) [listing 1 of 2 here]	6.14	32.12	–	CC50 [4]: 23.1 µM; pIC50 [5]: 5.91; pIC50 [6]: 5.20; Activity [7]: Non-Toxic
Cc1cc2c(c(O)c1-c1c(C)cc3c(c1O)/C(=C/N[C@@H]1[C@@H](O)[C@H](O)[C@@H](CO)O[C@H]1O)C(=O)C(O)=C3C(C)C)/C(=C/N[C@@H]1[C@@H](O)[C@H](O)[C@@H](CO)O[C@H]1O)C(=O)C(O)=C2C(C)C (stereo in doubt; (-)-1a) [listing 2 of 2 here]	–	–	–	Activity [8]: Active; Activity [9]: inactive
Cc1cc2c(C(C)C)c(O)c(O)c(C=O)c2c(O)c1-c1c(C)cc2c(C(C)C)c(O)c(O)c(C=O)c2c1O [GOSSYPOL]	–	–	–	CC50 [4]: 18.1 µM and 5.22 µM; Activity [7]: Toxic
Cc1cn([C@H]2C[C@H](N=[N+]=[N-])[C@@H](CO)O2)c(=O)[nH]c1=O [ZIDOVUDINE]	–	–	–	Activity [8]: Active; Activity [9]: inactive; pIC50 [1, 10]: 8.55
enfuvirtide	–	–	–	Activity [8]: Active; Activity [9]: inactive; pIC50 [1, 10]: 7.04
